According to patent US20060069132A1, “Azolecarboxamide herbicides” (priority 2004, published 2006):

Legend:
redroot pigweed = experiment: Test A pre-/postemergence herbicide test; type: in vivo, Amaranthus retroflexus
In short: (§1)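 Visual injury scores on a 0–100 scale (100 = complete control) taken about ten days post-treatment in greenhouse against untreated controls; dash means no result. Treatments: preemergence soil spray and postemergence spray to runoff on one- to two-leaf plants 2 to 10 cm tall, surfactant-containing formulation.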

yellow nutsedge = experiment: Test C pre-/postemergence herbicide test; type: in vivo, Cyperus esculentus; details: for Plant response rating (0 = no effect, 100 = complete control), Nutsedge, Yellow: 62 g ai/ha; for Plant response rating (0 = no effect, 100 = complete control), Nutsedge, Yellow / Plant response rating, Nutsedge, Yellow: preemergence; for Plant response rating, Nutsedge, Yellow: 125 g ai/ha, scale 0 (no effect) to 100 (complete control), visual, 12 to 14 days; for Nutsedge, Yellow plant response rating: Preemergence, 500 g ai/ha, scale 0 to 100, 0 no effect, 100 complete control
In short: (§2)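 Visual ratings on a 0–100 scale (100 = complete control) made versus untreated controls after 12 to 14 greenhouse days. Test chemicals, formulated in surfactant-containing non-phytotoxic solvent, applied preemergence to planted seeds or postemergence to 1- to 4-leaf plants (2 to 18 cm).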

lambsquarters = experiment: Test C pre-/postemergence herbicide test; type: in vivo, Chenopodium album; details: for Plant response rating (0 = no effect, 100 = complete control), Lambsquarters: 62 g ai/ha; for Plant response rating (0 = no effect, 100 = complete control), Lambsquarters / Plant response rating, Lambsquarters: preemergence; for Plant response rating, Lambsquarters: 125 g ai/ha, scale 0 (no effect) to 100 (complete control), visual, 12 to 14 days; for Lambsquarters plant response rating: Preemergence, 500 g ai/ha, scale 0 to 100, 0 no effect, 100 complete control
In short: as §2

eastern black nightshade = experiment: Test C pre-/postemergence herbicide test; type: in vivo, Solanum ptycanthum; details: for Plant response rating (0 = no effect, 100 = complete control), Nightshade: 62 g ai/ha; for Plant response rating (0 = no effect, 100 = complete control), Nightshade / Plant response rating, Nightshade: preemergence; for Plant response rating, Nightshade: 125 g ai/ha, scale 0 (no effect) to 100 (complete control), visual, 12 to 14 days; for Nightshade plant response rating: Preemergence, 500 g ai/ha, scale 0 to 100, 0 no effect, 100 complete control
In short: as §2

[1] = test system: smallflower umbrella sedge; experiment: Test C flooded paddy test; type: in vivo, Cyperus difformis; details: for Plant response rating, Sedge, Umbrella: 500 g ai/ha, visual rating after 12 to 14 days
morningglory [2] = experiment: Test C pre-/postemergence herbicide test; type: in vivo, Ipomoea coccinea; parameters: key to Plant response rating, Morningglory: 0 = no effect, 100 = complete control; details: for Plant response rating (0 = no effect, 100 = complete control), Morningglory: 62 g ai/ha; for Plant response rating (0 = no effect, 100 = complete control), Morningglory / Plant response rating, Morningglory: preemergence; for Plant response rating, Morningglory: 125 g ai/ha, scale 0 (no effect) to 100 (complete control), visual, 12 to 14 days; for Morningglory plant response rating: Preemergence, 500 g ai/ha, scale 0 to 100, 0 no effect, 100 complete control
In short: as §2

velvetleaf = experiment: Test A pre-/postemergence herbicide test; type: in vivo, Abutilon theophrasti
In short: as §1

barnyardgrass = experiment: Test C flooded paddy test; type: in vivo, Echinochloa crus-galli; details: for Plant response rating, Barnyardgrass: 500 g ai/ha, visual rating after 12 to 14 days
In short: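 After a postemergence application at 1 to 4 leaves (plants 2–18 cm high), or at 2 leaves for barnyardgrass in flooded paddy, plants stayed in the greenhouse for 12 to 14 days. Damage was then judged visually relative to control plants, with 100 indicating complete control.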

bermudagrass = experiment: Test C pre-/postemergence herbicide test; type: in vivo, Cynodon dactylon; details: for Plant response rating (0 = no effect, 100 = complete control), Bermudagrass: 62 g ai/ha; for Plant response rating (0 = no effect, 100 = complete control), Bermudagrass / Plant response rating, Bermudagrass: preemergence; for Plant response rating, Bermudagrass: visual, 12 to 14 days; for Bermudagrass plant response rating: Preemergence, 500 g ai/ha, scale 0 to 100, 0 no effect, 100 complete control
In short: as §2

common ragweed = experiment: Test C pre-/postemergence herbicide test; type: in vivo, Ambrosia elatior; parameters: key to Plant response rating, Ragweed: 0 = no effect, 100 = complete control; details: for Plant response rating (0 = no effect, 100 = complete control), Ragweed: 62 g ai/ha; for Plant response rating (0 = no effect, 100 = complete control), Ragweed / Plant response rating, Ragweed: preemergence; for Plant response rating, Ragweed: 125 g ai/ha, scale 0 (no effect) to 100 (complete control), visual, 12 to 14 days; for Ragweed plant response rating: Preemergence, 500 g ai/ha, scale 0 to 100, 0 no effect, 100 complete control
In short: as §2

giant foxtail = experiment: Test C pre-/postemergence herbicide test; type: in vivo, Setaria faberi; details: for Plant response rating (0 = no effect, 100 = complete control), Foxtail, Giant: 62 g ai/ha; for Plant response rating (0 = no effect, 100 = complete control), Foxtail, Giant / Plant response rating, Foxtail, Giant: preemergence; for Plant response rating, Foxtail, Giant: visual, 12 to 14 days; for Foxtail, Giant plant response rating: Preemergence, 500 g ai/ha, scale 0 to 100, 0 no effect, 100 complete control
In short: as §2

morningglory [3] = experiment: Test A pre-/postemergence herbicide test; type: in vivo, Ipomoea spp.
In short: as §1

[4] = Postemergence, 500 g ai/ha, 0 to 100 scale, 0 no effect, 100 complete control
[5] = Postemergence, 2000 g ai/ha, 0 to 100 scale, 0 no effect, 100 complete control
[6] = Preemergence, 500 g ai/ha, visual rating, 0 to 100 scale (0 no effect, 100 complete control)
[7] = Preemergence, 2000 g ai/ha, 0 to 100 scale, 0 no effect, 100 complete control
[8] = 62 g ai/ha, scale 0 to 100 (0 no effect, 100 complete control)
[9] = 125 g ai/ha, scale of 0 to 100, 0 is no effect, 100 is complete control
[10] = 250 g ai/ha, scale of 0 to 100, 0 is no effect, 100 is complete control
[11] = scale 0 to 100 (0 no effect, 100 complete control)
[12] = Preemergence, 2000 g ai/ha, visual rating, 0 to 100 scale (0 no effect, 100 complete control)
[13] = 125 g ai/ha, scale 0 (no effect) to 100 (complete control)
[14] = 250 g ai/ha, scale 0 to 100 (0 no effect, 100 complete control)

CCCN1CCc2c(NC(=O)c3cc(C(C)(C)C)nn3CC)cccc2C1=O [Compound 65]
Plant response rating, Pigweed (redroot pigweed; [4]): 70
Plant response rating, Pigweed (redroot pigweed; [5]): 70
Pigweed plant response rating (redroot pigweed; [6]): 100
Pigweed plant response rating (redroot pigweed; [7]): 100
Plant response rating (0 = no effect, 100 = complete control), Nutsedge, Yellow (yellow nutsedge): 0
Plant response rating, Nutsedge, Yellow (yellow nutsedge): 0
Nutsedge, Yellow plant response rating (yellow nutsedge): 0
Plant response rating (0 = no effect, 100 = complete control), Lambsquarters (lambsquarters): 20
Plant response rating, Lambsquarters (lambsquarters): 95
Lambsquarters plant response rating (lambsquarters): 100
Plant response rating (0 = no effect, 100 = complete control), Nightshade (eastern black nightshade): 50
Plant response rating, Nightshade (eastern black nightshade): 90
Nightshade plant response rating (eastern black nightshade): 100
Sedge, Umbrella plant response rating [1, 8]: 0
Sedge, Umbrella plant response rating [1, 9]: 20
Sedge, Umbrella plant response rating [1, 10]: 75
Plant response rating, Sedge, Umbrella [1, 11]: 80
Plant response rating (0 = no effect, 100 = complete control), Morningglory (morningglory [2]): 0
Plant response rating, Morningglory (morningglory [2]): 0
Morningglory plant response rating (morningglory [2]): 10
Plant response rating, Velvetleaf (velvetleaf; [5]): 25
Velvetleaf plant response rating (velvetleaf; [6]): 10
Velvetleaf plant response rating (velvetleaf; [12]): 30
Barnyardgrass plant response rating (barnyardgrass; [8]): 0
Barnyardgrass plant response rating (barnyardgrass; [9]): 0
Barnyardgrass plant response rating (barnyardgrass; [10]): 30
Plant response rating, Barnyardgrass (barnyardgrass; [11]): 60
Plant response rating (0 = no effect, 100 = complete control), Bermudagrass (bermudagrass): 40
Plant response rating, Bermudagrass (bermudagrass; [13]): 85
Plant response rating, Bermudagrass (bermudagrass; [14]): 95
Bermudagrass plant response rating (bermudagrass): 95
Plant response rating (0 = no effect, 100 = complete control), Ragweed (common ragweed): 0
Plant response rating, Ragweed (common ragweed): 0
Ragweed plant response rating (common ragweed): 60
Plant response rating (0 = no effect, 100 = complete control), Foxtail, Giant (giant foxtail): 0
Plant response rating, Foxtail, Giant (giant foxtail; [13]): 0
Plant response rating, Foxtail, Giant (giant foxtail; [14]): 20
Foxtail, Giant plant response rating (giant foxtail): 60
Plant response rating, Morningglory (morningglory [3]; [4]): 10
Plant response rating, Morningglory (morningglory [3]; [5]): 10
Morningglory plant response rating (morningglory [3]; [6]): 5
Morningglory plant response rating (morningglory [3]; [7]): 5

CCOC(=O)c1cccc(NC(=O)c2cc(C(C)(C)C)nn2CC)c1C [Compound 88]
Pigweed plant response rating (redroot pigweed; [4]): 90
Plant response rating, Pigweed (redroot pigweed; [5]): 100
Pigweed plant response rating (redroot pigweed; [6]): 90
Pigweed plant response rating (redroot pigweed; [7]): 100
Plant response rating (0 = no effect, 100 = complete control), Nutsedge, Yellow (yellow nutsedge): 0
Plant response rating, Nutsedge, Yellow (yellow nutsedge): 0
Nutsedge, Yellow plant response rating (yellow nutsedge): 0
Plant response rating (0 = no effect, 100 = complete control), Lambsquarters (lambsquarters): 95
Plant response rating, Lambsquarters (lambsquarters): 95
Lambsquarters plant response rating (lambsquarters): 100
Plant response rating (0 = no effect, 100 = complete control), Nightshade (eastern black nightshade): 40
Plant response rating, Nightshade (eastern black nightshade): 90
Nightshade plant response rating (eastern black nightshade): 95
Sedge, Umbrella plant response rating [1, 8]: 0
Sedge, Umbrella plant response rating [1, 9]: 50
Sedge, Umbrella plant response rating [1, 10]: 80
Plant response rating, Sedge, Umbrella [1, 11]: 80
Plant response rating (0 = no effect, 100 = complete control), Morningglory (morningglory [2]): 0
Plant response rating, Morningglory (morningglory [2]): 0
Morningglory plant response rating (morningglory [2]): 20
Velvetleaf plant response rating (velvetleaf; [4]): 40
Plant response rating, Velvetleaf (velvetleaf; [5]): 55
Velvetleaf plant response rating (velvetleaf; [6]): 45
Velvetleaf plant response rating (velvetleaf; [12]): 70
Barnyardgrass plant response rating (barnyardgrass; [8]): 0
Barnyardgrass plant response rating (barnyardgrass; [9]): 0
Barnyardgrass plant response rating (barnyardgrass; [10]): 15
Plant response rating, Barnyardgrass (barnyardgrass; [11]): 45
Plant response rating (0 = no effect, 100 = complete control), Bermudagrass (bermudagrass): 90
Plant response rating, Bermudagrass (bermudagrass; [13]): 95
Plant response rating, Bermudagrass (bermudagrass; [14]): 95
Bermudagrass plant response rating (bermudagrass): 95
Plant response rating (0 = no effect, 100 = complete control), Ragweed (common ragweed): 0
Plant response rating, Ragweed (common ragweed): 0
Ragweed plant response rating (common ragweed): 20
Plant response rating (0 = no effect, 100 = complete control), Foxtail, Giant (giant foxtail): 0
Plant response rating, Foxtail, Giant (giant foxtail; [13]): 50
Plant response rating, Foxtail, Giant (giant foxtail; [14]): 85
Foxtail, Giant plant response rating (giant foxtail): 100
Morningglory plant response rating (morningglory [3]; [4]): 35
Plant response rating, Morningglory (morningglory [3]; [5]): 40
Morningglory plant response rating (morningglory [3]; [6]): 10
Morningglory plant response rating (morningglory [3]; [7]): 40
